Where “and” joins values, the source holds several entries; their conditions need not be identical. Identical values can stand only once. Toxic doses and inconclusive results are not listed.
Tested on: P388 leukemia ip, CD2F1 mice, survival T/C
Assay: NCI In Vivo Anticancer Drug Screen. Data for tumor model P388 Leukemia (intraperitoneal) in CD2F1 (CDF1) mice
Details: endpoint: median survival time, higher = longer survival
Outline: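 Mice carrying the transplanted tumor received test compound or vehicle. Survival was recorded in each group, and the value is the treated-group measurement divided by that of the vehicle-treated control group.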

[1] = dose: 25.0 mg/kg/injection, schedule: Q01DX009 (ip), vehicle: saline with Tween-80
[2] = dose: 50.0 mg/kg/injection, schedule: Q01DX009 (ip), vehicle: saline with Tween-80
[3] = dose: 100.0 mg/kg/injection, schedule: Q01DX009 (ip), vehicle: saline with Tween-80

Question: With `CCOC(=O)c1cc2c(OC)c(OC)ccc2c2[nH]cc(C#N)c(=O)c12` as the compound, how does the T/C (dose: 12.5 mg/kg/injection, schedule: Q01DX009 (ip), vehicle: distilled water + Tween-80) read?
Answer: 100 % of control

Question: What about the T/C (dose: 25.0 mg/kg/injection, schedule: Q01DX009 (ip), vehicle: distilled water + Tween-80) of the same compound?
Answer: 94 % of control

Question: And the T/C (dose: 50.0 mg/kg/injection, schedule: Q01DX009 (ip), vehicle: distilled water + Tween-80)?
Answer: 93 % of control

Question: And the T/C (dose: 100.0 mg/kg/injection, schedule: Q01DX009 (ip), vehicle: distilled water + Tween-80)?
Answer: 90 % of control

Question: What about the T/C (dose: 200.0 mg/kg/injection, schedule: Q01DX009 (ip), vehicle: distilled water + Tween-80) of the same compound?
Answer: 86 % of control

Question: What does the source list for `COC1=C(OC)C(=O)C(C/C=C(\C)CC/C=C(\C)CC/C=C(\C)CC/C=C(\C)CC/C=C(\C)CC/C=C(\C)CC/C=C(\C)CC/C=C(\C)CC/C=C(\C)CCC=C(C)C)=C(C)C1=O`?
Answer: T/C (dose: 3.13 mg/kg/injection, schedule: Q01DX009 (ip), vehicle: saline with Tween-80): 90 % of control and 96 % of control; T/C (dose: 6.25 mg/kg/injection, schedule: Q01DX009 (ip), vehicle: saline with Tween-80): 86 % of control and 93 % of control; T/C (dose: 12.5 mg/kg/injection, schedule: Q01DX009 (ip), vehicle: saline with Tween-80): 96 % of control; T/C [1]: 86 % of control and 87 % of control; T/C [2]: 90 % of control; T/C [3]: 86 % of control and 87 % of control

Question: What does the source list for `CN(C)CCC(CCc1ccccc1)OC(=O)c1ccccc1` (stereo not given)?
Answer: T/C (dose: 25.0 mg/kg/injection, schedule: Q01DX009 (ip), vehicle: saline): 102 % of control; T/C (dose: 50.0 mg/kg/injection, schedule: Q01DX009 (ip), vehicle: saline): 101 % of control; T/C (dose: 100.0 mg/kg/injection, schedule: Q01DX009 (ip), vehicle: saline): 102 % of control

Question: With `CC(N=Cc1ccccc1O)c1ccccc1.[CH-]=C([CH2-])C(C)(C)C.[Pd+2]` (stereo not given) as the compound, how does the T/C (dose: 6.25 mg/kg/injection, schedule: Q04DX003 (ip), vehicle: Klucel (hydroxypropylcellulose) (HPC)) read?
Answer: 108 % of control

Question: What about the T/C (dose: 12.5 mg/kg/injection, schedule: Q04DX003 (ip), vehicle: Klucel (hydroxypropylcellulose) (HPC)) of the same compound?
Answer: 93 % of control

Question: What about the T/C (dose: 25.0 mg/kg/injection, schedule: Q04DX003 (ip), vehicle: Klucel (hydroxypropylcellulose) (HPC)) of the same compound?
Answer: 92 % of control

Question: Which T/C (dose: 100.0 mg/kg/injection, schedule: Q04DX002 (ip), vehicle: Klucel (hydroxypropylcellulose) (HPC)) does the source give for `Cn1c(=O)c2nc(-c3ccc(Cl)c(Cl)c3)cnc2n(C)c1=O` here?
Answer: 96 % of control

Question: And the T/C (dose: 200.0 mg/kg/injection, schedule: Q04DX002 (ip), vehicle: Klucel (hydroxypropylcellulose) (HPC))?
Answer: 95 % of control

Question: What about the T/C (dose: 400.0 mg/kg/injection, schedule: Q04DX002 (ip), vehicle: Klucel (hydroxypropylcellulose) (HPC)) of the same compound?
Answer: 98 % of control

Question: For `OC1C2CCC1C(N1CCOCC1)CC2` (stereo not given), which T/C (dose: 50.0 mg/kg/injection, schedule: Q01DX009 (ip), vehicle: saline sonified) is on record?
Answer: 100 % of control

Question: And the T/C (dose: 100.0 mg/kg/injection, schedule: Q01DX009 (ip), vehicle: saline sonified)?
Answer: 100 % of control

Question: And the T/C (dose: 200.0 mg/kg/injection, schedule: Q01DX009 (ip), vehicle: saline sonified)?
Answer: 105 % of control

Question: Which results are given for `CCc1nc(N)nc(N)c1-c1ccc([N+](=O)[O-])c(Cl)c1`?
Answer: T/C (dose: 100.0 mg/kg/injection, schedule: Q01DX005 (ip), vehicle: saline with Tween-80): 152 % of control; T/C (dose: 200.0 mg/kg/injection, schedule: Q01DX005 (ip), vehicle: saline with Tween-80): 93 % of control

Question: What does the source list for `CCc1ccc(C(=O)N/N=C(\C)[C@]2(O)Cc3c(O)c4c(c(O)c3[C@@H](OC3CC(N)C(O)C(C)O3)C2)C(=O)c2c(OC)cccc2C4=O)cc1` (stereo not given in full)?
Answer: T/C (dose: 0.12 mg/kg/injection, schedule: Q01DX009 (ip), vehicle: water): 111 % of control; T/C (dose: 1.0 mg/kg/injection, schedule: Q01DX009 (ip), vehicle: water): 154 % of control and 163 % of control; T/C (dose: 2.0 mg/kg/injection, schedule: Q01DX009 (ip), vehicle: water): 160 % of control and 175 % of control; T/C (dose: 4.0 mg/kg/injection, schedule: Q01DX009 (ip), vehicle: water): 151 % of control and 175 % of control; T/C (dose: 8.0 mg/kg/injection, schedule: Q01DX009 (ip), vehicle: water): 86 % of control and 93 % of control

Question: With `Cn1c(=O)c2c(ncn2-c2ccc(N)cc2Cl)n(C)c1=O` as the compound, how does the T/C (dose: 25.0 mg/kg/injection, schedule: Q01DX005 (ip), vehicle: distilled water + alcohol) read?
Answer: 100 % of control

Question: What about the T/C (dose: 50.0 mg/kg/injection, schedule: Q01DX005 (ip), vehicle: distilled water + alcohol) of the same compound?
Answer: 100 % of control and 101 % of control

Question: What about the T/C (dose: 100.0 mg/kg/injection, schedule: Q01DX005 (ip), vehicle: distilled water + alcohol) of the same compound?
Answer: 104 % of control

Question: What about the T/C (dose: 200.0 mg/kg/injection, schedule: Q01DX005 (ip), vehicle: distilled water + alcohol) of the same compound?
Answer: 99 % of control

Question: With `COc1ccc2c(c1)CCc1c(N)ncnc1-2` as the compound, how does the T/C (dose: 100.0 mg/kg/injection, schedule: Q04DX002 (ip), vehicle: saline with Tween-80) read?
Answer: 104 % of control

Question: What about the T/C (dose: 200.0 mg/kg/injection, schedule: Q04DX002 (ip), vehicle: saline with Tween-80) of the same compound?
Answer: 106 % of control

Question: And the T/C (dose: 400.0 mg/kg/injection, schedule: Q04DX002 (ip), vehicle: saline with Tween-80)?
Answer: 107 % of control

Question: What does the source list for `Cc1ccc(-c2nc3sccn3c2C=O)cc1`?
Answer: T/C (dose: 100.0 mg/kg/injection, schedule: Q01DX001 (ip), vehicle: Klucel (hydroxypropylcellulose) (HPC)): 95 % of control; T/C (dose: 200.0 mg/kg/injection, schedule: Q01DX001 (ip), vehicle: Klucel (hydroxypropylcellulose) (HPC)): 96 % of control; T/C (dose: 400.0 mg/kg/injection, schedule: Q01DX001 (ip), vehicle: Klucel (hydroxypropylcellulose) (HPC)): 96 % of control

Question: What does the source list for `O=C1O/C(=C/c2cc(Cl)c(O)c(Cl)c2)c2ccccc21`?
Answer: T/C (dose: 100.0 mg/kg/injection, schedule: Q04DX002 (ip), vehicle: saline): 96 % of control; T/C (dose: 200.0 mg/kg/injection, schedule: Q04DX002 (ip), vehicle: saline): 99 % of control; T/C (dose: 400.0 mg/kg/injection, schedule: Q04DX002 (ip), vehicle: saline): 99 % of control

Question: With `COC(=O)C1=C(C(=O)OC)C2(C)OC1c1ccccc12` (stereo not given) as the compound, how does the T/C (dose: 15.0 mg/kg/injection, schedule: Q01DX005 (ip), vehicle: saline with Tween-80) read?
Answer: 106 % of control

Question: What about the T/C (dose: 30.0 mg/kg/injection, schedule: Q01DX005 (ip), vehicle: saline with Tween-80) of the same compound?
Answer: 106 % of control

Question: And the T/C (dose: 60.0 mg/kg/injection, schedule: Q01DX005 (ip), vehicle: saline with Tween-80)?
Answer: 100 % of control and 102 % of control

Question: How did the T/C (dose: 6.0 mg/kg/injection, schedule: Q01DX005 (ip), vehicle: saline) turn out when `CN1C2CCC1CC(Cl)C2` (stereo not given) was run?
Answer: 107 % of control

Question: What about the T/C (dose: 7.5 mg/kg/injection, schedule: Q01DX005 (ip), vehicle: saline) of the same compound?
Answer: 91 % of control

Question: What about the T/C (dose: 12.0 mg/kg/injection, schedule: Q01DX005 (ip), vehicle: saline) of the same compound?
Answer: 107 % of control

Question: What about the T/C (dose: 15.0 mg/kg/injection, schedule: Q01DX005 (ip), vehicle: saline) of the same compound?
Answer: 99 % of control

Question: And the T/C (dose: 25.0 mg/kg/injection, schedule: Q01DX005 (ip), vehicle: saline)?
Answer: 102 % of control

Question: What about the T/C (dose: 30.0 mg/kg/injection, schedule: Q01DX005 (ip), vehicle: saline) of the same compound?
Answer: 99 % of control

Question: With `CN(C)C1CCc2[nH]c3c(F)cc(F)cc3c2C1` (stereo not given) as the compound, how does the T/C [2] read?
Answer: 102 % of control

Question: What does the source list for `CCOC(=S)NC(=O)c1ccccc1`?
Answer: T/C [2]: 99 % of control; T/C [3]: 108 % of control; T/C (dose: 200.0 mg/kg/injection, schedule: Q01DX009 (ip), vehicle: saline with Tween-80): 100 % of control

Question: Which results are given for `CCOP(=O)(N=Nc1cccnc1)OCC`?
Answer: T/C (dose: 1.56 mg/kg/injection, schedule: Q01DX009 (ip), vehicle: water): 107 % of control; T/C (dose: 3.12 mg/kg/injection, schedule: Q01DX009 (ip), vehicle: water): 101 % of control; T/C (dose: 6.25 mg/kg/injection, schedule: Q01DX005 (ip), vehicle: water): 100 % of control; T/C (dose: 6.25 mg/kg/injection, schedule: Q01DX009 (ip), vehicle: water): 101 % of control; T/C (dose: 12.5 mg/kg/injection, schedule: Q01DX005 (ip), vehicle: water): 96 % of control; T/C (dose: 12.5 mg/kg/injection, schedule: Q01DX009 (ip), vehicle: water): 112 % of control; T/C (dose: 25.0 mg/kg/injection, schedule: Q01DX005 (ip), vehicle: water): 102 % of control; T/C (dose: 25.0 mg/kg/injection, schedule: Q01DX009 (ip), vehicle: water): 117 % of control; T/C (dose: 50.0 mg/kg/injection, schedule: Q01DX005 (ip), vehicle: water): 103 % of control; T/C (dose: 100.0 mg/kg/injection, schedule: Q01DX005 (ip), vehicle: water): 103 % of control

Question: How did the T/C [1] turn out when `O=C1C2CCCCC2C1(Cl)Cl` (stereo not given) was run?
Answer: 103 % of control

Question: And the T/C [2]?
Answer: 99 % of control

Question: What about the T/C [3] of the same compound?
Answer: 118 % of control

Question: `CCc1nc(-c2ccccc2)nc2c1nc(C(C)C)n2Nc1ccccc1` was tested. Which T/C (dose: 100.0 mg/kg/injection, schedule: Q01DX001 (ip), vehicle: saline with Tween-80) did it give?
Answer: 104 % of control

Question: What about the T/C (dose: 200.0 mg/kg/injection, schedule: Q01DX001 (ip), vehicle: saline with Tween-80) of the same compound?
Answer: 93 % of control

Question: What about the T/C (dose: 400.0 mg/kg/injection, schedule: Q01DX001 (ip), vehicle: saline with Tween-80) of the same compound?
Answer: 89 % of control

Question: How did the T/C (dose: 60.0 mg/kg/injection, schedule: Q01DX005 (ip), vehicle: Klucel (hydroxypropylcellulose) (HPC)) turn out when `CCOC(=O)c1cnc2cc3c(cc2c1Nc1cccc(Cl)c1)OCO3` was run?
Answer: 105 % of control

Question: And the T/C (dose: 120.0 mg/kg/injection, schedule: Q01DX005 (ip), vehicle: Klucel (hydroxypropylcellulose) (HPC))?
Answer: 95 % of control

Question: And the T/C (dose: 240.0 mg/kg/injection, schedule: Q01DX005 (ip), vehicle: Klucel (hydroxypropylcellulose) (HPC))?
Answer: 108 % of control

From PubChem BioAssay AID330 (DTP/NCI, 2004)
